Among the data in US6716846B2, “High affinity ligands for nociceptin receptor ORL-1” (Schering Corporation, priority 1998, dated 2004) are activation values, retold here.

This test deals with human ORL-1 receptor (Homo sapiens, UniProt P41146). The test is described as follows: Agonist activity: stimulation of [35S]-GTPγS binding. The following applies: compound at 100 nM. Type of test: biochemical.
Sequence of human ORL-1 receptor (P41146 whole entry): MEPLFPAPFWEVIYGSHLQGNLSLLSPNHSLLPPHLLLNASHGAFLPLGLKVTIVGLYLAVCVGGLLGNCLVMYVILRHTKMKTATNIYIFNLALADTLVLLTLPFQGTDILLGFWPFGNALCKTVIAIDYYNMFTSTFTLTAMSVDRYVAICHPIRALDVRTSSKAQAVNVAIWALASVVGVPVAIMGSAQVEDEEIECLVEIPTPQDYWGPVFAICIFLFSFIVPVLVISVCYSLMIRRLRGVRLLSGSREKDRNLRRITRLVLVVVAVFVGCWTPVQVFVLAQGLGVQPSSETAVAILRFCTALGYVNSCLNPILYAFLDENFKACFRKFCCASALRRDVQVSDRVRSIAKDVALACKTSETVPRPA

In the case of `CNC(=O)NC1(c2ccccc2)CCN(C(c2ccccc2Cl)c2ccccc2Cl)CC1`, the activation at 0.1 µM amounted to 102%.
